Test results published in PubChem BioAssay AID1745844 (Carcinogenic Potency Database (CPDB), 2022).
The source made the active and inactive calls. How the calls were made is not given here.

Test system: rodent lifetime carcinogenesis bioassay, tumor incidence TD50
Experiment: carcinogenic potency in animals, long-term in vivo studies, CPDB compilation (AID 1745844)

`O=S(=O)(O)NC1CCCCC1` gave a TD50 (monkey, strain Cynomolgus [Macaca fascicularis], both sexes, in feed, site: liver, lesion: hepatocellular carcinoma, dosed 1238 weeks, study length 1238 weeks) of 1250 mg/kg/day, a TD50 (monkey, strain Cynomolgus [Macaca fascicularis], both sexes, in feed, site: prostate, lesion: adenocarcinoma, dosed 1238 weeks, study length 1238 weeks) of 35.6 mg/kg/day and a TD50 (monkey, strain Rhesus [Macaca mulatta], both sexes, in feed, site: any site (literature study), lesion: malignant tumor, dosed 1251 weeks, study length 1251 weeks) of 3160 mg/kg/day. It also gave a TD50 (monkey, strain Rhesus [Macaca mulatta], both sexes, in feed, site: colon, lesion: adenocarcinoma, dosed 1251 weeks, study length 1251 weeks) of 764 mg/kg/day, a TD50 (monkey, strain Rhesus [Macaca mulatta], both sexes, in feed, site: thyroid gland, lesion: papillary adenoma, dosed 1251 weeks, study length 1251 weeks) of 182 mg/kg/day and a TD50 (mouse, strain (C3H x RIII)F1 (MTV+), males, in drinking water, site: any site (literature study), lesion: several types, types named in the paper, dosed 104 weeks, study length 104 weeks) of 772 mg/kg/day. For the same molecule, the TD50 (mouse, strain (C3H x RIII)F1 (MTV+), males, in drinking water, site: liver, lesion: several types, types named in the paper, dosed 104 weeks, study length 104 weeks) was 1420 mg/kg/day, the TD50 (mouse, strain (C3H x RIII)F1 (MTV+), males, in drinking water, site: lung, lesion: several types, types named in the paper, dosed 104 weeks, study length 104 weeks) was 4380 mg/kg/day and the carcinogen call (mouse, strain ASH-CS1, females, in feed, site: liver, lesion: one or several types, types not named, dosed 80 weeks, study length 82 weeks) was “negative (inactive)”. The TD50 (mouse, strain ASH-CS1, females, in feed, site: lung, lesion: adenoma, dosed 80 weeks, study length 82 weeks) was 228000 mg/kg/day (inactive), the TD50 (mouse, strain ASH-CS1, females, in feed, site: reticuloendothelium, lesion: lymphosarcoma, dosed 80 weeks, study length 82 weeks) was 16700 mg/kg/day (inactive) and the carcinogen call (mouse, strain ASH-CS1, males, in feed, site: liver, lesion: one or several types, types not named, dosed 80 weeks, study length 82 weeks) was “negative (inactive)”. For the same molecule, the carcinogen call (mouse, strain ASH-CS1, males, in feed, site: lung, lesion: adenoma, dosed 80 weeks, study length 82 weeks) was “negative (inactive)”, the TD50 (mouse, strain RIII (MTV+), males, in drinking water, site: any site (literature study), lesion: several types, types named in the paper, dosed 104 weeks, study length 104 weeks) was 4670 mg/kg/day and the TD50 (mouse, strain RIII (MTV+), males, in drinking water, site: lung, lesion: several types, types named in the paper, dosed 104 weeks, study length 104 weeks) was 4670 mg/kg/day. For the same molecule, the carcinogen call (mouse, strain Swiss albino, females, in feed, site: liver, lesion: hepatoma, dosed 76 weeks, study length 76 weeks) was “negative (inactive)”, the carcinogen call (mouse, strain Swiss, females, in feed, site: urinary bladder, lesion: anaplastic carcinoma, dosed 91 weeks, study length 91 weeks) was “negative (inactive)” and the carcinogen call (mouse, strain Swiss, males, in feed, site: urinary bladder, lesion: one or several types, types not named, dosed 91 weeks, study length 91 weeks) was “negative (inactive)”. For the same molecule, the TD50 (mouse, strain XVII/G, females, in drinking water, site: any site (literature study), lesion: several types, types named in the paper, dosed 104 weeks, study length 104 weeks) was 587 mg/kg/day, the TD50 (mouse, strain XVII/G, females, in drinking water, site: liver, lesion: several types, types named in the paper, dosed 104 weeks, study length 104 weeks) was 16000 mg/kg/day and the TD50 (mouse, strain XVII/G, females, in drinking water, site: lung, lesion: several types, types named in the paper, dosed 104 weeks, study length 104 weeks) was 587 mg/kg/day. The TD50 (rat, strain Sprague-Dawley, both sexes, in feed, site: any site (literature study), lesion: malignant tumor, dosed 130 weeks, study length 130 weeks) was 30700 mg/kg/day (inactive), the carcinogen call (rat, strain Sprague-Dawley, both sexes, in feed, site: urinary bladder, lesion: papilloma, dosed 130 weeks, study length 130 weeks) was “negative (inactive)” and the carcinogen call (rat, strain Sprague-Dawley, both sexes, in feed, site: urinary bladder, lesion: transitional-cell carcinoma, dosed 130 weeks, study length 130 weeks) was “negative (inactive)”. For the same molecule, the TD50 (rat, strain Wistar, both sexes, in feed, site: urinary bladder, lesion: one or several types, types not named, dosed 104 weeks, study length 104 weeks) was 83900 mg/kg/day.

With `C=C(C)C` the carcinogen call (mouse, strain B6C3F1, females, inhaled, site: any site (literature study), lesion: several types, types named in the paper, dosed 105 weeks, study length 105 weeks) was “negative (inactive)”, the TD50 (mouse, strain B6C3F1, females, inhaled, site: liver, lesion: hepatocellular adenoma + hepatoblastoma + hepatocellular carcinoma, dosed 105 weeks, study length 105 weeks) was 47800 mg/kg/day and the TD50 (mouse, strain B6C3F1, males, inhaled, site: any site (literature study), lesion: several types, types named in the paper, dosed 104 weeks, study length 104 weeks) was 8840 mg/kg/day (inactive). For the same molecule, the carcinogen call (rat, strain Fischer 344, females, inhaled, site: any site (literature study), lesion: several types, types named in the paper, dosed 104 weeks, study length 104 weeks) was “negative (inactive)”, the TD50 (rat, strain Fischer 344, females, inhaled, site: liver, lesion: hepatocellular adenoma + hepatoblastoma + hepatocellular carcinoma, dosed 104 weeks, study length 104 weeks) was 30100 mg/kg/day and the TD50 (rat, strain Fischer 344, males, inhaled, site: thyroid gland, lesion: follicular-cell carcinoma, dosed 104 weeks, study length 104 weeks) was 3550 mg/kg/day.

`c1ccc2c(c1)[nH]c1ccccc12` was tested, and the TD50 (mouse, strain B6C3F1, females, in feed, site: forestomach, lesion: papilloma, dosed 96 weeks, study length 104 weeks) was 1290 mg/kg/day, the TD50 (mouse, strain B6C3F1, females, in feed, site: forestomach, lesion: several types, types named in the paper, dosed 96 weeks, study length 104 weeks) was 1960 mg/kg/day and the TD50 (mouse, strain B6C3F1, females, in feed, site: liver, lesion: hepatocellular carcinoma, dosed 96 weeks, study length 104 weeks) was 102 mg/kg/day. For the same molecule, the TD50 (mouse, strain B6C3F1, males, in feed, site: forestomach, lesion: papilloma, dosed 96 weeks, study length 104 weeks) was 7030 mg/kg/day, the TD50 (mouse, strain B6C3F1, males, in feed, site: forestomach, lesion: several types, types named in the paper, dosed 96 weeks, study length 104 weeks) was 2790 mg/kg/day and the TD50 (mouse, strain B6C3F1, males, in feed, site: forestomach, lesion: squamous-cell carcinoma, dosed 96 weeks, study length 104 weeks) was 4940 mg/kg/day. It also gave a TD50 (mouse, strain B6C3F1, males, in feed, site: liver, lesion: hepatocellular carcinoma, dosed 96 weeks, study length 104 weeks) of 424 mg/kg/day.

In the case of `CNN`, the TD50 (hamster, strain Syrian Golden, females, in drinking water, site: cecum, lesion: polypoid adenoma, dosed 86 weeks, study length 86 weeks) is reported as 29.8 mg/kg/day, the TD50 (hamster, strain Syrian Golden, females, in drinking water, site: cecum, lesion: several types, types named in the paper, dosed 86 weeks, study length 86 weeks) is reported as 25.8 mg/kg/day and the TD50 (hamster, strain Syrian Golden, females, in drinking water, site: liver, lesion: histiocytoma, malignant, dosed 86 weeks, study length 86 weeks) is reported as 15.4 mg/kg/day. For the same molecule, the TD50 (hamster, strain Syrian Golden, females, in drinking water, site: liver, lesion: several types, types named in the paper, dosed 86 weeks, study length 86 weeks) was 30.8 mg/kg/day, the TD50 (hamster, strain Syrian Golden, females, in drinking water, site: lung, lesion: angiosarcoma, dosed 86 weeks, study length 86 weeks) was 297 mg/kg/day (inactive) and the TD50 (hamster, strain Syrian Golden, males, in drinking water, site: cecum, lesion: polypoid adenoma, dosed 100 weeks, study length 100 weeks) was 50.7 mg/kg/day. The TD50 (hamster, strain Syrian Golden, males, in drinking water, site: cecum, lesion: several types, types named in the paper, dosed 100 weeks, study length 100 weeks) was 42.1 mg/kg/day, the TD50 (hamster, strain Syrian Golden, males, in drinking water, site: liver, lesion: histiocytoma, malignant, dosed 100 weeks, study length 100 weeks) was 9.2 mg/kg/day and the carcinogen call (mouse, strain Swiss, females, by gavage, site: lung, lesion: one or several types, types not named, dosed 40 weeks, study length 55 weeks) was “negative (inactive)”. The TD50 (mouse, strain Swiss, females, in drinking water, site: bile duct, lesion: cholangioma, dosed 62 weeks, study length 62 weeks) was 29.2 mg/kg/day, the TD50 (mouse, strain Swiss, females, in drinking water, site: bile duct, lesion: several types, types named in the paper, dosed 62 weeks, study length 62 weeks) was 24.6 mg/kg/day and the TD50 (mouse, strain Swiss, females, in drinking water, site: liver, lesion: hepatoma, dosed 62 weeks, study length 62 weeks) was 51.1 mg/kg/day. For the same molecule, the TD50 (mouse, strain Swiss, females, in drinking water, site: liver, lesion: several types, types named in the paper, dosed 113 weeks, study length 113 weeks) was 47.2 mg/kg/day, the TD50 (mouse, strain Swiss, females, in drinking water, site: lung, lesion: adenocarcinoma, dosed 113 weeks, study length 113 weeks) was 5.63 mg/kg/day and the TD50 (mouse, strain Swiss, females, in drinking water, site: lung, lesion: adenoma, dosed 62 weeks, study length 62 weeks) was 19.6 mg/kg/day. It also gave a TD50 (mouse, strain Swiss, females, in drinking water, site: lung, lesion: adenoma, dosed 113 weeks, study length 113 weeks) of 4.02 mg/kg/day, a TD50 (mouse, strain Swiss, females, in drinking water, site: lung, lesion: several types, types named in the paper, dosed 62 weeks, study length 62 weeks) of 21.4 mg/kg/day and a TD50 (mouse, strain Swiss, females, in drinking water, site: lung, lesion: several types, types named in the paper, dosed 113 weeks, study length 113 weeks) of 2.98 mg/kg/day. It also gave a TD50 (mouse, strain Swiss, males, in drinking water, site: all sites, lesion: malignant lymphoma, dosed 112 weeks, study length 112 weeks) of 7.85 mg/kg/day, a TD50 (mouse, strain Swiss, males, in drinking water, site: bile duct, lesion: several types, types named in the paper, dosed 69 weeks, study length 69 weeks) of 22.5 mg/kg/day and a TD50 (mouse, strain Swiss, males, in drinking water, site: liver, lesion: hepatoma, dosed 69 weeks, study length 69 weeks) of 7.25 mg/kg/day. It also gave a TD50 (mouse, strain Swiss, males, in drinking water, site: liver, lesion: several types, types named in the paper, dosed 69 weeks, study length 69 weeks) of 4.58 mg/kg/day, a TD50 (mouse, strain Swiss, males, in drinking water, site: lung, lesion: adenocarcinoma, dosed 112 weeks, study length 112 weeks) of 12 mg/kg/day and a TD50 (mouse, strain Swiss, males, in drinking water, site: lung, lesion: adenoma, dosed 69 weeks, study length 69 weeks) of 10.1 mg/kg/day. It also gave a TD50 (mouse, strain Swiss, males, in drinking water, site: lung, lesion: adenoma, dosed 112 weeks, study length 112 weeks) of 2.93 mg/kg/day and a TD50 (mouse, strain Swiss, males, in drinking water, site: lung, lesion: several types, types named in the paper, dosed 112 weeks, study length 112 weeks) of 2.51 mg/kg/day.

With `O=[N+]([O-])c1cc([N+](=O)[O-])c(Cl)c(Cl)c1Cl` the TD50 (mouse, strain B6AKF1, females, oral dosing, site: any site (literature study), lesion: several types, types named in the paper, dosed 76 weeks, study length 76 weeks) was 52.6 mg/kg/day, the TD50 (mouse, strain B6AKF1, females, oral dosing, site: lung, lesion: adenoma, dosed 76 weeks, study length 76 weeks) was 108 mg/kg/day and the TD50 (mouse, strain B6AKF1, males, oral dosing, site: lung, lesion: adenoma, dosed 76 weeks, study length 76 weeks) was 49 mg/kg/day. For the same molecule, the TD50 (mouse, strain B6C3F1, males, oral dosing, site: any site (literature study), lesion: several types, types named in the paper, dosed 76 weeks, study length 76 weeks) was 19.8 mg/kg/day.

For `O=NN1CCSCC1`, the TD50 (rat, strain MRC, females, in drinking water, site: any site (literature study), lesion: several types, types named in the paper, dosed 38 weeks, study length 105 weeks) was 7.38 mg/kg/day, the TD50 (rat, strain MRC, females, in drinking water, site: esophagus, lesion: several types, types named in the paper, dosed 38 weeks, study length 105 weeks) was 7.69 mg/kg/day and the TD50 (rat, strain MRC, females, in drinking water, site: tongue, lesion: squamous-cell carcinoma, dosed 38 weeks, study length 105 weeks) was 22 mg/kg/day. The TD50 (rat, strain MRC, males, in drinking water, site: any site (literature study), lesion: several types, types named in the paper, dosed 38 weeks, study length 95 weeks) was 2.29 mg/kg/day and the TD50 (rat, strain MRC, males, in drinking water, site: esophagus, lesion: several types, types named in the paper, dosed 38 weeks, study length 95 weeks) was 4.15 mg/kg/day.

With `CCSCC[C@H](N)C(=O)O` the carcinogen call (rat, strain Wistar, males, in feed, site: liver, lesion: carcinoma, dosed 34 weeks, study length 52 weeks) was “positive”.

Work on `O=NN1CCC(O)C1` (stereo unspecified) yielded a TD50 (rat, strain Sprague-Dawley, both sexes, in drinking water, site: any site (literature study), lesion: malignant tumor, dosed 112 weeks, study length 112 weeks) of 7.65 mg/kg/day and a TD50 (rat, strain Sprague-Dawley, both sexes, in drinking water, site: liver, lesion: hepatocellular carcinoma, dosed 112 weeks, study length 112 weeks) of 8.11 mg/kg/day.
